# Experimental data reported in paper PMC4313117, “Elabela-Apelin Receptor Signaling Pathway is Functional in Mammalian Systems” (Scientific Reports, 2015).
# How the values were obtained:
# mouse aortic rings = test: Vasorelaxation of U46619-contracted mouse aortic rings; design: species or system mouse (C57BL/6)
# From the text: Changes in tension were expressed as the percentage decrease in reference to precontraction tension. […] Values are means ± SEM. (n = 5–10). **p < 0.01, compared to aortas with endothelium at the same concentration points of the compound.
# Aortas were isolated from 8–10 weeks male wild-type C57BL/6 mice, cut into 3-mm rings and mounted in organ chambers (PowerLab, AD Instruments, CO, USA) in Kreb's buffer as described previously. The contractile response was elicited by vasoconstrictor U46619 (30 nM) to produce contraction. […] In some preparations, the endothelium was mechanically removed from denuded arteries by gentle rubbing off the intimal surface with a wooden stick.
# APJ = settings: zebrafish studies; cited from earlier work
# From the text: ELA deficiency leads to severe defects in heart development and lymphogenesis. ...
# HUVECs = test: In vitro angiogenesis (tubular formation) assay in HUVECs; format: cell-based, human; settings: for increase in number of branch points: HUVECs on Geltrex, counted after 10 hr; for increase in number of branch points / increase in tubular formation, APJ-overexpressing HUVECs: n = 5
# From the text: ELA is a secreted hormone and expressed in adult kidney and prostate, and may, therefore, circulate in blood. Since ELA is required for normal development of cardiovascular system, blood vessel could be a target of ELA action. Vascular tube formation assay is a well-used in vitro study to assess angiogenic factors and conditions in which vascular cells, [e.g. human umbilical vascular endothelial cells (HUVECs)], can form tube-like structures under pro-angiogenic conditions in culture wells coated with Geltrex containing extra-cellular matrix. The number of branch points is used as an indicator for the strength of angiogenic stimuli.
# Figure 4 Stimulation of tubule-like structure by ELA-APJ signaling. […] (B), Reverse transcription PCR of human APJ expression of HUVECs infected with APJ or APJ siRNA lentiviral constructs.
# Tubular formation assay for angiogenesis was conducted in 96-well plates which were coated with 50 μl of Geltrex (Life Technologies, A14133-02) and left for polymerization by incubation for 1 hr at 37°C. […] Quantification of the tubular formation was performed after 10 hr of culture by calculating the number of branching point formed in each well under an inverted phase contrast photomicroscope (Olympus IX50), as described.
# human saphenous vein = settings: cited from earlier work
# [1] = system: mouse heart failure model of coronary artery ligation; settings: cited from earlier work
# From the text: Apelin was considered the only endogenous ligand for APJ since isolation of the apelin peptide. Apelin is expressed in multiple tissues including adipose tissue, heart, vasculature, brain and kidney, whereas APJ is more broadly expressed in tissues such as heart, blood vessels and adipose tissue. […] At the receptor level, APJ is a GPCR coupled to Gi and/or Gq[15][16]. Activation of APJ results in biochemical responses i ... || Recently, the therapeutic potential of apelin as a reagent for heart failure has been increasingly recognized.
# [2] = system: vascular tone; blood pressure; settings: cited from earlier work
# Procedure: The aortic rings were induced to contraction with vasoconstrictor U46619 (final concentration, 30 nM).
molecule,measurement,setting,value
apelin-13,reduction of relaxing effect by removal of endothelium,"mouse aortic rings; apelin-13, denuded vs intact vessels, n = 5–10",48%
same,"relaxation, denuded vessels","mouse aortic rings; apelin-13, endothelium-denuded, U46619 30 nM precontraction, n = 5–10",31%
same,"maximum relaxation, endothelium-intact vessels","mouse aortic rings; apelin-13 at 10^−6 M, U46619 30 nM precontraction, n = 5–10",79%
CC(=O)OCC[N+](C)(C)C [acetylcholine],relaxation by acetylcholine (control of endothelium removal and NOS inhibition),mouse aortic rings; endothelium-denuded or L-NAME-treated arteries,inability of acetylcholine to relax the arteries
CSCC[C@H](NC(=O)[C@@H](NC(=O)[C@H](CC(C)C)NC(=O)[C@H](CC(N)=O)NC(=O)[C@@H](NC(=O)[C@@H]1CCCN1C(=O)[C@H](CCCNC(=N)N)NC(=O)[C@@H](N)CCC(N)=O)C(C)C)[C@@H](C)O)C(=O)N[C@@H](CCCNC(=N)N)C(=O)N[C@@H](CCCNC(=N)N)C(=O)N[C@@H](CCCCN)C(=O)N[C@@H](CC(C)C)C(=O)N[C@@H](CCCNC(=N)N)C(=O)N[C@@H](CCCCN)C(=O)N[C@@H](Cc1c[nH]cn1)C(=O)N[C@@H](CC(N)=O)C(=O)N[C@H]1CSSC[C@@H](C(=O)N[C@@H](CCSC)C(=O)N2CCC[C@H]2C(=O)N[C@@H](CC(C)C)C(=O)N[C@@H](Cc2c[nH]cn2)C(=O)N[C@@H](CO)C(=O)N[C@@H](CCCNC(=N)N)C(=O)N[C@H](C(=O)N2CCC[C@H]2C(=O)N[C@@H](Cc2ccccc2)C(=O)N2CCC[C@H]2C(=O)O)C(C)C)NC(=O)[C@H](CCCNC(=N)N)NC(=O)[C@H](CCCNC(=N)N)NC(=O)[C@H](CCC(N)=O)NC(=O)[C@H](CC(C)C)NC1=O [ELA],binding and activation of APJ,APJ,binds and activates APJ
same,relaxation with L-NAME pretreatment,"mouse aortic rings; 1 mM L-NAME for 30 min, then U46619, followed by ELA",No significant difference was observed between the L-NAME-treated and non-treated vessels
same,"maximum relaxation, endothelium-intact vessels","mouse aortic rings; U46619 30 nM precontraction, ELA 10^−9 to 10^−6 M cumulative, n = 5–10",73.7%
same,decrease in relaxation in denuded vs intact vessels,"mouse aortic rings; endothelium-denuded, ELA at corresponding concentrations, n = 5–10",~ 20%
same,"tubular formation, APJ-knock down HUVECs","HUVECs; ELA 0.1 μM, APJ siRNA",not effective in inducing the formation of tubular structures
same,increase in number of branch points,HUVECs; ELA 0.1 μM,71.9%
same,"increase in tubular formation, APJ-overexpressing HUVECs","HUVECs; ELA 0.1 μM, compared to empty vector control cells with ELA",63.3%
same,"increase in tubular formation, APJ-overexpressing HUVECs","HUVECs; ELA 0.1 μM, compared to empty vector control cells without ELA",190.2%
same,increase in number of branch points,HUVECs; ELA 0.5 μM,222.8%
same,increase in number of branch points,HUVECs; ELA 1 μM,266.7%
apelin,vasoconstriction,human saphenous vein,vasoconstriction is also noted in human saphenous vein
same,"cardiac protection, contractility, infarction size, stem cell mobilization",[1]; mouse heart failure model of coronary artery ligation,"have cardiac-protective effect and can increase heart contractility, reduce infarction size and promote cardiac stem cell mobilization to the infarct area"
same,cardioprotective effect,"[1]; various animal models, infusion",appears to have cardioprotective effect in various animal models
same,vascular tone,[2],relax vascular tone
same,vasodilatory effect,[2],a vasodilatory effect of apelin is reported
same,blood pressure,[2]; no ref number printed at this statement,lower blood pressure
same,vasoconstriction in denuded vessels,[2]; vessels denuded of endothelium,vasoconstriction is also noted
